Assay results from patent US20060134097A1, “Process for production of aqueous colloid of graphite silica particles emitting far-infrared rays” (priority 2004, published 2006).

Columns and labels:
[1] = tested on: Tyrosinase derived from mushroom; assay: tyrosinase activity inhibition; type: biochemical; conditions: control agents
Method: The above aqueous colloid (conc) of the present invention as a basic material, and ascorbic acid and hydroquinone as control agents were used. Tyrosinase used that derived from mushroom (from Sigma Co., Ltd.: 2,500 U/mg). Specifically, for testing an inhibiting effect against tyrosinase activity, 4 kinds of solutions were prepared. (1) a tyrosine solution (0.5 mg/ml); 0.5 ml loading, (2) a 1/15 M phosphate buffer (pH 6.8); 2.0 ml loading, (3) a tyrosine solution (6.0 mg/100 ml); 0.5 ml loading, and (4) a test solution: the nanocolloid particle and/or the aqueous colloid of the present invention, ascorbic acid, or hydroquinone (0.005, 0.01, 0.05, 0.1, 0.5 mg) dissolved in buffer; 2.0 ml loading. The solutions of (1) to (4) were mixed to incubate at 37° C. for one hour, followed by the measurement of absorbance (At) at 475 nm. In addition, the absorbance obtained by adding the phosphate buffer (2 ml) in place of each test solution to carry out the same operation (Ab) was used as control to determine an inhibition rate. The inhibition rate was calculated from the resultant Ab and At values using the formula: inhibition rate=(Ab−At)/Ab×100.

[2] = tested on: writhing reaction induced by acetic acid in mice; assay: acetic acid-induced writhing reaction; type: in vivo; conditions: count over 10 minutes from 10 minutes after 0.7% acetic acid i.p.; s.c. 30 minutes before: aspirin 300 mg/kg, colloid 0.1 ml/10 g
From the text: Then, an analgesic effect of the aqueous colloid of the present invention in mice was studied using a writhing reaction induced by acetic acid. In the observation of the behavior of twisting in response e.g. to a pain due to acetic acid irritation in the peritoneal cavity (writhing), when the administration of an agent suppresses the writhing reaction, the agent can be said to have depressed pseudo affective response, assessing it as having an anti-nociceptive effect. 1) ddy strain male mice (7-week old; 27 to 38 g; 6 mice per group); 2) drug solution: aspirin in 0.1 M Tris-Hydrochloride buffer as a solvent (pH 7.8); […] 4) the aqueous colloid of the present invention: 100 ml of the nanocolloid of the present invention to which 0.9 g of sodium chloride was added to make an isotonicsolution. 1) dividing mice into 3 groups to subcutaneously administer, to an aspirin (300 mg/kg) treatment group, the aspirin solution, the Tris-Hydrochloride buffer to a control group, and the aqueous nanocolloid (0.1 ml/10 g) to the remaining group; […] 3) starting to count the frequency of writhing 10 minutes after the administration of the acetic acid and recording a frequency of writhing during a period of 10 minutes. (See FIG. 10)

With O=C1O[C@H]([C@@H](O)CO)C(O)=C1O [ascorbic acid] the tyrosinase activity [1] was “inhibited the tyrosinase activity”.

Oc1ccc(O)cc1 [hydroquinone] was tested, and the tyrosinase activity [1] was “inhibited the tyrosinase activity”.

For CC(=O)Oc1ccccc1C(=O)O [aspirin], the frequency of writhing [2] was 10.5±1.2.
